From PubChem BioAssay AID330 (DTP/NCI, 2004)
Several values for one entry are separate records, joined by “and”; a condition that tells them apart may be missing. Equal values may be shown once. Inconclusive results and toxic doses are left out. Rule for the calls: active = survival T/C of 150% or more; inactive = T/C below 125% in these data.

Tested on: P388 leukemia ip, CD2F1 mice, survival T/C
Experiment: NCI In Vivo Anticancer Drug Screen. Data for tumor model P388 Leukemia (intraperitoneal) in CD2F1 (CDF1) mice
Details: endpoint: median survival time, higher = longer survival
How it was run: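 Mice carrying the transplanted tumor received test compound or vehicle. Survival was recorded in each group, and the value is the treated-group measurement divided by that of the vehicle-treated control group.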

[1] = dose: 60.0 mg/kg/injection, schedule: Q01DX005 (ip), vehicle: saline with Tween-80
[2] = dose: 120.0 mg/kg/injection, schedule: Q01DX005 (ip), vehicle: saline with Tween-80
[3] = dose: 240.0 mg/kg/injection, schedule: Q01DX005 (ip), vehicle: saline with Tween-80
[4] = dose: 200.0 mg/kg/injection, schedule: Q01DX009 (ip), vehicle: saline
[5] = dose: 100.0 mg/kg/injection, schedule: Q04DX003 (ip), vehicle: Klucel (hydroxypropylcellulose) (HPC)
[6] = dose: 200.0 mg/kg/injection, schedule: Q04DX003 (ip), vehicle: Klucel (hydroxypropylcellulose) (HPC)
[7] = dose: 400.0 mg/kg/injection, schedule: Q04DX003 (ip), vehicle: Klucel (hydroxypropylcellulose) (HPC)
[8] = dose: 6.25 mg/kg/injection, schedule: Q01DX009 (ip), vehicle: saline
[9] = dose: 12.5 mg/kg/injection, schedule: Q01DX009 (ip), vehicle: saline
[10] = dose: 50.0 mg/kg/injection, schedule: Q01DX005 (ip), vehicle: Klucel (hydroxypropylcellulose) (HPC)
[11] = dose: 100.0 mg/kg/injection, schedule: Q01DX005 (ip), vehicle: Klucel (hydroxypropylcellulose) (HPC)
[12] = dose: 200.0 mg/kg/injection, schedule: Q01DX005 (ip), vehicle: Klucel (hydroxypropylcellulose) (HPC)
[13] = dose: 60.0 mg/kg/injection, schedule: Q01DX005 (ip), vehicle: Klucel (hydroxypropylcellulose) (HPC)
[14] = dose: 120.0 mg/kg/injection, schedule: Q01DX005 (ip), vehicle: Klucel (hydroxypropylcellulose) (HPC)
[15] = dose: 240.0 mg/kg/injection, schedule: Q01DX005 (ip), vehicle: Klucel (hydroxypropylcellulose) (HPC)

Measured: T/C

O=C(O)/C(=C\c1c(Cl)[nH]c2ccccc12)NC(=O)c1ccccc1
inactive: dose: 100.0 mg/kg/injection, schedule: Q01DX001 (ip), vehicle: saline with Tween-80 103 % of control | dose: 200.0 mg/kg/injection, schedule: Q01DX001 (ip), vehicle: saline with Tween-80 99 % of control | dose: 400.0 mg/kg/injection, schedule: Q01DX001 (ip), vehicle: saline with Tween-80 98 % of control

CN1CCN(Cc2ccccc2)C(C#N)C1 (centres undefined)
inactive: dose: 3.13 mg/kg/injection, schedule: Q01DX005 (ip), vehicle: water 100 % of control | dose: 6.25 mg/kg/injection, schedule: Q01DX005 (ip), vehicle: water 95 % of control | dose: 12.5 mg/kg/injection, schedule: Q01DX005 (ip), vehicle: water 93 % of control | dose: 25.0 mg/kg/injection, schedule: Q01DX005 (ip), vehicle: water 100 % of control | dose: 50.0 mg/kg/injection, schedule: Q01DX005 (ip), vehicle: water 105 % of control and 112 % of control | dose: 100.0 mg/kg/injection, schedule: Q01DX005 (ip), vehicle: water 105 % of control

CCCCOC(=O)NC(=O)c1cc2cc(I)cc(I)c2oc1=O
inactive: [1] 91 % of control | [2] 94 % of control | [3] 94 % of control

CC(C)(C)OC(=O)NCC(=O)NNC(=O)OC(C)(C)C
inactive: dose: 100.0 mg/kg/injection, schedule: Q01DX009 (ip), vehicle: saline 118 % of control | [4] 118 % of control | dose: 400.0 mg/kg/injection, schedule: Q01DX009 (ip), vehicle: saline 118 % of control

O=c1c[n+](-c2ccccc2)[nH]o1
inactive: [5] 109 % of control | [6] 100 % of control | [7] 104 % of control

Cc1ccc(Nc2n[nH]c(=S)s2)cc1C
inactive: dose: 100.0 mg/kg/injection, schedule: Q04DX003 (ip), vehicle: saline with Tween-80 90 % of control | dose: 200.0 mg/kg/injection, schedule: Q04DX003 (ip), vehicle: saline with Tween-80 90 % of control | dose: 400.0 mg/kg/injection, schedule: Q04DX003 (ip), vehicle: saline with Tween-80 95 % of control

C[N+]1(CCC(=O)c2ccccc2)CCOCC1
inactive: [8] 100 % of control | [9] 103 % of control | dose: 25.0 mg/kg/injection, schedule: Q01DX009 (ip), vehicle: saline 100 % of control | dose: 50.0 mg/kg/injection, schedule: Q01DX009 (ip), vehicle: saline 100 % of control and 97 % of control | [4] 96 % of control

CCOC(=O)CNC(=O)C(CSSCC(NC(=O)OCc1ccccc1)C(=O)O)NC(=O)OCc1ccccc1 (centres undefined)
inactive: [10] 97 % of control | [11] 97 % of control | [12] 99 % of control

Cc1c([N+](=O)[O-])oc2c1C(=O)N([N+](=O)[O-])CCC2
inactive: [5] 114 % of control

C=C(C)c1nc(N)nc(NCCCC)n1
inactive: [5] 104 % of control | [6] 100 % of control | [7] 96 % of control

CCOC(=O)C1CC(=O)c2ccc(OC)c(OC)c2C1 (centres undefined)
inactive: dose: 25.0 mg/kg/injection, schedule: Q01DX009 (ip), vehicle: other 103 % of control | dose: 50.0 mg/kg/injection, schedule: Q01DX009 (ip), vehicle: other 100 % of control | dose: 100.0 mg/kg/injection, schedule: Q01DX009 (ip), vehicle: other 94 % of control | dose: 200.0 mg/kg/injection, schedule: Q01DX009 (ip), vehicle: other 94 % of control | dose: 400.0 mg/kg/injection, schedule: Q01DX009 (ip), vehicle: other 98 % of control

Nc1cc(O)c(O)c2c1C(=O)c1c(O)c(O)cc(N)c1C2=O
inactive: [10] 102 % of control | [11] 105 % of control | [12] 99 % of control

c1ccc(-c2[nH]c3cc4c(cc3c2-c2ccccc2)Oc2ccccc2O4)cc1
inactive: dose: 17.5 mg/kg/injection, schedule: Q01DX009 (ip), vehicle: Klucel (hydroxypropylcellulose) (HPC) 116 % of control | dose: 35.0 mg/kg/injection, schedule: Q01DX009 (ip), vehicle: Klucel (hydroxypropylcellulose) (HPC) 113 % of control | dose: 70.0 mg/kg/injection, schedule: Q01DX009 (ip), vehicle: Klucel (hydroxypropylcellulose) (HPC) 104 % of control

O=C(O)c1cc(O)cc(C(=O)O)c1
inactive: dose: 25.0 mg/kg/injection, schedule: Q01DX009 (ip), vehicle: saline with Tween-80 99 % of control | dose: 50.0 mg/kg/injection, schedule: Q01DX009 (ip), vehicle: saline with Tween-80 99 % of control | dose: 100.0 mg/kg/injection, schedule: Q01DX009 (ip), vehicle: saline with Tween-80 94 % of control

Cc1oc(NCc2ccccc2)c(C#N)c1C
inactive: dose: 50.0 mg/kg/injection, schedule: Q01DX009 (ip), vehicle: saline + alcohol 105 % of control | dose: 100.0 mg/kg/injection, schedule: Q01DX009 (ip), vehicle: saline + alcohol 90 % of control | dose: 200.0 mg/kg/injection, schedule: Q01DX009 (ip), vehicle: saline + alcohol 91 % of control

O=C1CC2OCC=C3CN4CCC56c7ccccc7N1C5C2C3CC46 (centres undefined)
inactive: dose: 0.2 mg/kg/injection, schedule: Q01DX009 (ip), vehicle: saline with Tween-80 100 % of control | dose: 0.4 mg/kg/injection, schedule: Q01DX009 (ip), vehicle: saline with Tween-80 102 % of control | dose: 0.8 mg/kg/injection, schedule: Q01DX009 (ip), vehicle: saline with Tween-80 97 % of control

CCCOCn1cc(F)c(=O)n(COCCC)c1=O
inactive: dose: 5.62 mg/kg/injection, schedule: Q04DX002 (ip), vehicle: water 95 % of control | dose: 11.25 mg/kg/injection, schedule: Q04DX002 (ip), vehicle: water 93 % of control | dose: 22.5 mg/kg/injection, schedule: Q04DX002 (ip), vehicle: water 92 % of control | dose: 45.0 mg/kg/injection, schedule: Q04DX002 (ip), vehicle: water 92 % of control | dose: 90.0 mg/kg/injection, schedule: Q04DX002 (ip), vehicle: water 91 % of control | dose: 180.0 mg/kg/injection, schedule: Q04DX002 (ip), vehicle: water 95 % of control

COC1C(=O)c2ccccc2N1C(C)=O (centres undefined)
inactive: [13] 108 % of control | [14] 101 % of control | [15] 99 % of control

CCCCC(NC(=O)C(C)N)C(=O)O (centres undefined)
inactive: dose: 50.0 mg/kg/injection, schedule: Q01DX009 (ip), vehicle: Klucel (hydroxypropylcellulose) (HPC) 98 % of control | dose: 100.0 mg/kg/injection, schedule: Q01DX009 (ip), vehicle: Klucel (hydroxypropylcellulose) (HPC) 98 % of control | dose: 200.0 mg/kg/injection, schedule: Q01DX009 (ip), vehicle: Klucel (hydroxypropylcellulose) (HPC) 95 % of control | dose: 400.0 mg/kg/injection, schedule: Q01DX009 (ip), vehicle: Klucel (hydroxypropylcellulose) (HPC) 101 % of control

CNC(=O)OCc1c(COC(=O)NC)c(-c2ccc(Cl)cc2Cl)n2c1CCC2
active: dose: 100.0 mg/kg/injection, schedule: Q01DX009 (ip), vehicle: distilled water + Tween-80 164 % of control

COC1(OC)OC(c2ccccc2)=C(c2ccccc2)C(C#N)(C#N)C1(OC)OC
inactive: [13] 91 % of control | [14] 88 % of control | [15] 94 % of control

N#CC(Nc1ncccn1)c1ccccc1 (centres undefined)
inactive: [1] 97 % of control | [2] 94 % of control | [3] 91 % of control

CCC[N+](CCC)=c1ccc2nc3c(C)cc(N(CC)CC)cc3sc-2c1
inactive: dose: 0.78 mg/kg/injection, schedule: Q01DX009 (ip), vehicle: saline 108 % of control | dose: 1.56 mg/kg/injection, schedule: Q01DX009 (ip), vehicle: saline 112 % of control | dose: 3.13 mg/kg/injection, schedule: Q01DX009 (ip), vehicle: saline 113 % of control and 118 % of control | [8] 123 % of control | [9] 115 % of control

COc1ccc(-c2oc(=O)cc(-c3ccccc3)c2-c2ccccc2)cc1
inactive: dose: 50.0 mg/kg/injection, schedule: Q01DX005 (ip), vehicle: saline with Tween-80 112 % of control | dose: 100.0 mg/kg/injection, schedule: Q01DX005 (ip), vehicle: saline with Tween-80 93 % of control | dose: 200.0 mg/kg/injection, schedule: Q01DX005 (ip), vehicle: saline with Tween-80 87 % of control

NC(CSSCC(N)C(=O)c1ccccc1)C(=O)c1ccccc1 (centres undefined)
inactive: [10] 98 % of control | [11] 98 % of control | [12] 105 % of control
